According to the CheMixHub viscosity set:

Test: xn = mol fraction of the nth substance listed

CCOCCOCCOCC + CC1COC(=O)O1
viscosity [mPa·s], 101.33 kPa
Conditions | 298.15 K | 308.15 K | 318.15 K
x1 = 0.013 | 2.474 | 2.024 | 1.703
x1 = 0.0542 | 2.418 | 1.982 | 1.658
x1 = 0.1089 | 2.353 | 1.923 | 1.605
x1 = 0.1594 | 2.288 | 1.875 | 1.555
x1 = 0.2136 | 2.225 | 1.827 | 1.506
x1 = 0.257 | 2.179 | 1.782 | 1.466
x1 = 0.3304 | 2.08 | 1.702 | 1.39
x1 = 0.4267 | 1.94 | 1.589 | 1.297
x1 = 0.497 | 1.833 | 1.504 | 1.227
x1 = 0.5874 | 1.717 | 1.404 | 1.152
x1 = 0.6907 | 1.589 | 1.306 | 1.076
x1 = 0.7876 | 1.474 | 1.219 | 1.01
x1 = 0.8704 | 1.377 | 1.148 | 0.957
x1 = 0.9264 | 1.316 | 1.101 | 0.922
x1 = 0.9628 | 1.289 | 1.071 | 0.901

C=CC(=O)OC(C)(C)C + CC#N
viscosity [mPa·s], 100 kPa
Conditions | 293.15 K | 298.15 K | 303.15 K | 308.15 K | 313.15 K | 318.15 K
x2 = 0.0772 | 0.8592 | 0.787 | 0.72 | 0.664 | 0.6141 | 0.571
x2 = 0.1496 | 0.8154 | 0.7472 | 0.684 | 0.631 | 0.5837 | 0.5427
x2 = 0.2216 | 0.7728 | 0.7087 | 0.6493 | 0.5994 | 0.5548 | 0.5161
x2 = 0.2983 | 0.7282 | 0.6684 | 0.6132 | 0.5668 | 0.5252 | 0.489
x2 = 0.3643 | 0.6903 | 0.6344 | 0.5828 | 0.5393 | 0.5003 | 0.4663
x2 = 0.4345 | 0.6506 | 0.5988 | 0.5511 | 0.5107 | 0.4745 | 0.4426
x2 = 0.5074 | 0.61 | 0.5624 | 0.5187 | 0.4816 | 0.4481 | 0.4186
x2 = 0.5769 | 0.5719 | 0.5284 | 0.4885 | 0.4544 | 0.4236 | 0.3963
x2 = 0.6465 | 0.5345 | 0.495 | 0.459 | 0.4278 | 0.3997 | 0.3746
x2 = 0.7141 | 0.4991 | 0.4635 | 0.4312 | 0.403 | 0.3775 | 0.3546
x2 = 0.7821 | 0.4645 | 0.4329 | 0.4044 | 0.3793 | 0.3565 | 0.3358
x2 = 0.8603 | 0.4264 | 0.3994 | 0.3753 | 0.354 | 0.3344 | 0.3164
x2 = 0.9345 | 0.3923 | 0.3699 | 0.3502 | 0.3324 | 0.3162 | 0.301

COC(=O)c1ccccc1 + CC#N
viscosity [mPa·s], 101.33 kPa
Conditions | x1 = 0.134 | x1 = 0.255 | x1 = 0.373 | x1 = 0.48 | x1 = 0.57 | x1 = 0.666 | x1 = 0.752 | x1 = 0.837 | x1 = 0.922
293.15 K | 0.444 | 0.476 | 0.515 | 0.624 | 0.676 | 0.805 | 0.958 | 1.128 | 1.508
303.15 K | 0.4 | 0.43 | 0.46 | 0.551 | 0.595 | 0.695 | 0.814 | 0.95 | 1.226
313.15 K | 0.365 | 0.387 | 0.41 | 0.5 | 0.521 | 0.608 | 0.701 | 0.811 | 1.016
323.15 K | 0.329 | 0.351 | 0.367 | 0.446 | 0.467 | 0.531 | 0.602 | 0.691 | 0.854

CC(C)OCCO + CC(=O)N(C)C
298.15 K, 101 kPa
Conditions | viscosity [mPa·s]
x1 = 0.0063 | 0.956
x1 = 0.014 | 0.97
x1 = 0.0243 | 0.983
x1 = 0.0518 | 1.016
x1 = 0.0792 | 1.049
x1 = 0.1131 | 1.092
x1 = 0.1712 | 1.167
x1 = 0.2095 | 1.225
x1 = 0.2923 | 1.336
x1 = 0.3534 | 1.422
x1 = 0.3673 | 1.443
x1 = 0.3996 | 1.494
x1 = 0.4419 | 1.555
x1 = 0.4958 | 1.63
x1 = 0.5445 | 1.704
x1 = 0.6028 | 1.782
x1 = 0.6671 | 1.871
x1 = 0.7594 | 1.973
x1 = 0.8097 | 2.044
x1 = 0.867 | 2.083
x1 = 0.9066 | 2.098
x1 = 0.9627 | 2.102
x2 = 0.006 | 2.106
x2 = 0.0146 | 2.105

CNC=O + CC(=O)N(C)C
viscosity [mPa·s], 101 kPa
Conditions | x2 = 0.0697 | x2 = 0.0811 | x2 = 0.1686 | x2 = 0.2571 | x2 = 0.3498 | x2 = 0.4488 | x2 = 0.545 | x2 = 0.6533 | x2 = 0.7606 | x2 = 0.8777
293.15 K | 1.824 | 1.81 | 1.709 | 1.612 | 1.516 | 1.422 | 1.337 | 1.252 | 1.176 | 1.101
303.15 K | 1.543 | 1.532 | 1.452 | 1.374 | 1.296 | 1.219 | 1.151 | 1.083 | 1.021 | 0.962
313.15 K | 1.325 | 1.316 | 1.252 | 1.188 | 1.125 | 1.063 | 1.007 | 0.95 | 0.9 | 0.85
323.15 K | 1.157 | 1.149 | 1.096 | 1.044 | 0.991 | 0.94 | 0.893 | 0.846 | 0.803 | 0.762
